# Data published in patent publication US20250161236A1, “THYMOQUINONE AND BLACK SEED COMPOSITIONS FOR TREATING NEUROENDOCRINE CANCER IN COMBINATION WITH IMMUNOTHERAPY” (Novatek Pharmaceuticals, Inc., priority 2023, published 2025).
# B1: spartalizumab: single agent ICPI in a phase II study in refractory NEC (antibody, chains of the INN, looked up, V domains shown)
# VH: EVQLVQSGAEVKKPGESLRISCKGSGYTFTTYWMHWVRQATGQGLEWMGNIYPGTGGSNFDEKFKNRVTITADKSTSTAYMELSSLRSEDTAVYYCTRWTTGTGAYWGQGTTVTVSS
# VL: EIVLTQSPATLSLSPGERATLSCKSSQSLLDSGNQKNFLTWYQQKPGQAPRLLIYWASTRESGVPSRFSGSGSGTDFTFTISSLEAEDAATYYCQNDYSYPYTFGQGTKVEIK
# Columns and labels:
# breast cancer cells = conditions: cited from earlier work
# Bon-1 (or QGP-1) cells = assay: Colony formation assay; format: cell-based, human; conditions: 2.5 uM or 12.5 uM TQ 72 hrs, then 12 days drug free; p<0.01
# Procedure: About 500 Bon-1 (or QGP-1) cells were seeded in 6-well plates in triplicate and allowed to attach overnight. On the following day, cells were treated with 2.5 uM or 12.5 uM TQ (or control) for 72 hrs. After treatment, cells were replenished with drug free media for 12 days and subjected to 0.5% crystal violet staining. Bar diagrams (FIG. 1B) show the number of colonies at the indicated TQ concentration.
# BON-1 cells [1] = assay: Cell viability (MTT) assay, BON-1 cells; format: cell-based, human; conditions: 72 hrs
# Procedure: (§1) TQ activity was evaluated in two human pancreatic neuroendocrine tumor (pNEN) cell lines: (1) BON-1 cells, established from a lymph node metastasis of a pNET (Evers et al. 1991, Gastroenterology. 101, 303-311); and (2) QGP-1 cells, established from primary somatostatin producing pNET (Kaku et al. 1980, Gan. 71, 596-601). […] See Vandamme et al. 2015, J. Mol. Endocrinol. 54, 137-147.
# (§2) About 5000 Bon-1 or 5000 QGP-1 cells were grown in 96-well plates overnight. On the following day, the cells were exposed to the indicated concentrations of TQ for 72 hrs. At the end of the treatment period, a standard MTT assay was performed to measure cell proliferation and conversely, in the presence of TQ, the reduction in cell viability The values represent 6 replicates per dose from three independent experiments.
# [2] = tested on: pancreatic ductal adenocarcinoma tumor models; assay: TQ inhibitory action in pancreatic ductal adenocarcinoma tumor models; format: cell-based
# BON-1 cells [3] = assay: Annexin V FITC apoptosis analysis; format: cell-based, human; conditions: 3 uM or 6 uM TQ, 72 h
# Procedure: (§3) About 30,000 BON-1 cells were grown in triplicate in 6 well plates overnight. The next day cells were exposed to 3 uM or 6 uM TQ (or control) for 72 h followed by Annexin V FITC apoptosis analysis. See, e.g., Demchenko 2012, Exp. Oncol. 34, 263-268. In addition, BON-1 cells grown and treated under similar experimental conditions were evaluated by Western blotting for the presence of cleaved PARP-a marker of apoptosis. See, e.g., Chaitanya et al. 2010, Cell Comm. Signal. 8, 31.
# [4] = tested on: PARP cleavage in BON-1 cells; assay: Western blotting for cleaved PARP; format: cell-based, human; conditions: 3 uM or 6 uM TQ, 72 h
# Procedure: as §3
# QGP-1 cells = assay: Cell viability (MTT) assay, QGP-1 cells; format: cell-based, human; conditions: 72 hrs
# Procedure: as §1, §2
# [5] = tested on: patients with refractory poorly differentiated NEC; conditions: cited from earlier work
# [6] = tested on: patients with refractory high grade (G3) NENs; conditions: cited from earlier work
# refractory NEC patients = conditions: high-grade NEC group of 21 patients; cited from earlier work
molecule,measurement,setting,value
CCCCCCCCCOc1c(CCCC(=O)O)cc(-c2ccc(C(=O)O)cc2)cc1CCCC(=O)O [CNBDA],inhibitory effects against breast cancer cells,breast cancer cells,significant inhibitory effects
"CC1=CC(=O)C(C(C)C)=CC1=O [TQ, Thymoquinone]",long term growth in colony formation assay,Bon-1 (or QGP-1) cells,suppressed long term growth
same,IC50 (cell viability),BON-1 cells [1],low uM range
same,IC50,[2],high uM range
same,"apoptosis (Annexin V-FITC staining, flow cytometry)",BON-1 cells [3],induced significant apoptosis
same,PARP cleavage product (western blot),[4],dose dependent accumulation of the PARP cleavage product
same,IC50 (cell viability),QGP-1 cells,low uM range
nivolumab: anti-PD-1 antibody,ORR,[5]; at 8 weeks,7.2%
same,OS,[5],7.2 months
same,PFS,[5],1.8 months
pembrolizumab: anti-PD1 antibody,objective response rate (ORR),[6],5%
B1,ORR,refractory NEC patients,4.8%
same,OS,refractory NEC patients,6.8 months
same,PFS,refractory NEC patients,1.8 months
